How the values were obtained:
[1] = tested on: Panc02 tumor on the thigh of C57B16 mice; test: Syngeneic mouse model of pancreatic cancer, tumor volume under radiation; type: in vivo; details: 700 mg/kg per os once 12 hours before first radiation, with capecitabine 350 mg/kg 5 days, 2 Gy x 5 days, 20 days
Experimental: A syngeneic mouse model of pancreatic cancer (Panc02 growing on the thigh of C57B16 mice) was used to evaluate the effects of C60-ser on in vivo tumors. Mice were treated with 350 mg/kg capecitabine via per os gavage for 5 days 1 hour before radiation (RT+Cape), or capecitabine treatment with a single dose of 700 mg/kg C60-ser via per os gavage once 12 hours before the first dose of radiation (RT+Cape+c60 Ser). Mice were exposed to 2 Gy of radiation (RT) once per day for 5 days. A control group (Cont) without treatment also was exposure to the radiation treatment. Normalized tumor volumes were monitored for 20 days.

HepG2 cells [2] = test: Classic clonogenics survival assay of irradiated cells, HepG2; type: cell-based
Experimental: A classic clonogenics assay was performed to further test the ability of C60-ser to protect against radiation damage. After irradiation, a fraction of the cells will undergo radiation-induced death, whereas other cells remain metabolically active and are able to undergo a few cycles of mitosis before meeting their endpoint. Since many cells remain metabolically activity, classic toxicity measurements such as an MTT measurement are not able to catch the full effects of radiation damage. In contrast, a classic clonogenics assay, which plates a known number of cells and tracks development of colonies, is able to track the number of cells that maintain their clonogenicity. With increasing radiation doses, the fraction of cells that maintain clonogenicity decrease. Therefore, a successful radioprotectant is able to increase the number of surviving colonies compared to the control at the same radiation doses.
N2A, NIH3T3, and HepG2 cells were plated in 35 mm dishes and treated with 100 μM C60-ser for 2 hours prior to washing with PBS and irradiation at 0, 2, 4, and 6 Gy with a 230 MeV proton beam. Following radiation, a known number of cells were re-plated in six well plates and allowed to grow in culture for 8-14 days to allow for colony formation. To account for cell death with higher radiation doses, a larger number of cells were plated with increasing doses received. […]

N2A cells = test: Seahorse mitochondrial respiration (oxygen consumption rate), N2A; type: cell-based; details: pretreated 2 hours before 1 Gy 230 MeV proton
Experimental: (§1) The oxygen consumption rates were assessed in N2A, HUVEC, NIH3T3, and HepG2 cell lines with a Seahorse XFe96 (Agilent Technologies, Santa Clara, CA, USA). Cells were treated with 0 and 1 Gy of 230 MeV proton irradiation. The control plates were run at about the same time post plating. Each cell line was optimized prior to these experiments, and data was presented normalized to cell number plated. The standard mitochondrial stress test was performed using serial injections of oligomycin (1.5 μM), carbonyl cyanide p-(trifluoromethoxy)phenylhydrazone (FCCP, 1 μM), and rotenone/antimycin A mixture (0.5 μM). After injection of oligomycin, which inhibits ATP synthase (complex V), there was a drop in electron flow through the electron transport chain (ETC) and a resultant drop in oxygen consumption rate (OCR) of the cells. Injection of FCCP collapsed the proton gradient and allowed for uninhibited electron flow through the ETC supercomplexes. […] The reserve respiratory capacity was calculated by subtracting the basal respiratory capacity from the maximal respiratory capacity.

NIH3T3 cells [3] = test: MTS cytotoxicity assay, NIH3T3; type: cell-based
Experimental: Cytotoxicity of C60-ser was determined by an MTS (3-(4,5-dimethylthiazol-2-yl)-5-(3-carboxymethoxyphenyl)-2-(4-sulfophenyl)-2H-tetrazolim) colorimetric assay on four different cell lines, each representing a different cell type. Specifically, HepG2 (liver epithelium), HUVEC (endothelial cells), N2A (neuroblastoma cells representative of normal neurons), and NIH3T3 (fibroblasts) were analyzed. The cells were seed in a 96-well tissue culture polystyrene plate at different seeding concentrations based on the cell's doubling time. HUVEC cells were seeded at 10,000 cells/well (24 hour experiments), 8,000 cells/well (48 hour experiments), and 5,000 cells/well (72 hour experiments), and incubated for 24 hours in a humidified atmosphere with 5% C02 at 37° C. […] After incubation with MTS, the optical density (OD) of the resulting formazan solution was read at 490 nm using a microplate reader (Biotek Cytation 5 cell Imaging Multi-Mode reader, Winooski, VT). The cell viability was obtained by normalizing the absorbance of the sample with that of the control wells containing untreated cells. The cell viability was expressed as a percentage, assigning the viability of non-treated cells as 100%. […]

[4] = tested on: HCT116 colorectal cancer cells; test: Clonogenic assay of irradiated HCT116 colorectal cancer cells; type: cell-based; details: HCT116, 100 μM 2 hours, 0-6 Gy
Experimental: A clonogenic assay of HCT116 colorectal cancer cells was conducted. 2×10^6 cells were treated with 100 μM C60-ser for 2 hours and exposed to 0-6 Gy of radiation.

HepG2 cells [5] = test: Seahorse mitochondrial respiration (oxygen consumption rate), HepG2; type: cell-based; details: HepG2, pretreated 2 hours before 1 Gy 230 MeV proton
Experimental: as §1

NIH3T3 cells [6] = test: Seahorse mitochondrial respiration (oxygen consumption rate), NIH3T3; type: cell-based; details: NIH3T3, pretreated 2 hours before 1 Gy 230 MeV proton
Experimental: as §1

O=C(NC(CO)CO)C1(C(=O)NC(CO)CO)C23c4c5c6c7c8c4-c4c2c2c9c%10c4C4%11c%12c-%10c%10c%13c%14c%12-c%12c(c-7c7c%15c%12C%14%12C(C(=O)NC(CO)CO)(C(=O)NC(CO)CO)C%12%14c%12c%16c%17c%18c(c%12-%15)C7%12C(C(=O)NC(CO)CO)(C(=O)NC(CO)CO)C6%12c6c-5c5c7c(c6-%18)C%176C(C(=O)NC(CO)CO)(C(=O)NC(CO)CO)C6%12c6c-7c(c-2c2c6-c6c%12c-%16c%14c-%13c6C%106C(C(=O)NC(CO)CO)(C(=O)NC(CO)CO)C926)C513)C84C%11(C(=O)NC(CO)CO)C(=O)NC(CO)CO (stereo not drawn) [C60-ser, C60-serinol]
normalized tumor volume vs capecitabine alone [1]: not significantly different in normalized tumor volume
fraction of surviving cells (HepG2 cells [2]; HepG2, 100 μM 2 hours before irradiation): increased the fraction of surviving cells
dose enhancement factor (DEF) at 20% surviving fraction (HepG2 cells [2]; HepG2, 100 μM 2 hours, 0-6 Gy 230 MeV proton): 0.88±0.01
radiation-induced increase in respiratory capacity (N2A cells): dampened and, in some cases, reduced to normal or slightly below normal levels
percent viability at the highest dose (NIH3T3 cells [3]; NIH3T3, 1000 μM): downward trend
percent viability (NIH3T3 cells [3]; NIH3T3, 1-1000 μM, 24, 48 or 72 hours): did not result in a significant decrease in viability
surviving fraction of cells vs control [4]: no difference in the surviving fraction of cells
radiation-induced increase in respiratory capacity (HepG2 cells [5]): dampened and, in some cases, reduced to normal or slightly below normal levels
radiation-induced increase in respiratory capacity (NIH3T3 cells [6]): dampened and, in some cases, reduced to normal or slightly below normal levels

Source: patent publication US20240189263A1, “DERIVATIZED C60 MOLECULES AND METHODS AND MATERIALS FOR USING DERIVATIZED C60 MOLECULES TO REDUCE RADIATION INJURY” (Mayo Foundation for Medical Education and Research, priority 2021, published 2024)
